pIC50: −log10 of the molar value. Values joined by “and” are separate entries in the source; they are usually repeats but may differ in a detail not shown here. Equal values may be shown once.
Columns and labels:
Genome polyprotein [1] = target: T1, Genome polyprotein (dengue virus type 2, UniProt P29990); assay type: functional, Thailand/16681/1984
Genome polyprotein [2] = target: T1, Genome polyprotein; assay type: functional, Thailand/16681/1984; remark: listed apart in the source

T1 sequence (P29990 1346-1475 limits assumed): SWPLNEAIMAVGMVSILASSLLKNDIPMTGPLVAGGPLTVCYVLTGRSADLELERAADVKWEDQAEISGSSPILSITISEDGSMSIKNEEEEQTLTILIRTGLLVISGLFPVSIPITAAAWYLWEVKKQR
T1 sequence (P29990 1476-2093 limits assumed): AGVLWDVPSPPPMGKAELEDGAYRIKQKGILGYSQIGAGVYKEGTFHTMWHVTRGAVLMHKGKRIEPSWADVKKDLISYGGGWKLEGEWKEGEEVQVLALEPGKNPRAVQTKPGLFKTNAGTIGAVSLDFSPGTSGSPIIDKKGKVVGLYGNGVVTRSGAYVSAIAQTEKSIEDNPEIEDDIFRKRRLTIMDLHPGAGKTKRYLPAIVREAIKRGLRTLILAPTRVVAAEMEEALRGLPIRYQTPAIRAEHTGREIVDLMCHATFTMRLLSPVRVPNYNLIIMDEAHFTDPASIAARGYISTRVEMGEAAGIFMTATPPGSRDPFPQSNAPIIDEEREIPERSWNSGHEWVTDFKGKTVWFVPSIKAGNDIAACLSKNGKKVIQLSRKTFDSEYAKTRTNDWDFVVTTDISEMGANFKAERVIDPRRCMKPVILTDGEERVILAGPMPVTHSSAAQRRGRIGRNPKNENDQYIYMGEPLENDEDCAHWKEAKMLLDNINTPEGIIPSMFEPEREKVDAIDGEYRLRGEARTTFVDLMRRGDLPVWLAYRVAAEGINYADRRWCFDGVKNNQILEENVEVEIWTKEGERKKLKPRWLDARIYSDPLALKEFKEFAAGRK

Structure (SMILES) | pIC50 (Genome polyprotein [1]) | pIC50 (Genome polyprotein [2])
O=C(Nc1ccc2c(c1)CNC2)c1ccc2[nH]ncc2c1 | < 4.00 | < 4.00
O=C(Nc1ccc2c(c1)CNC2)c1cc(Cl)cc2cn[nH]c12 | < 4.00 | < 4.00
CN1Cc2cc(NC(=O)c3cc(Cl)cc4[nH]ncc34)ccc2C1(C)C | < 4.00 | < 4.00
O=C(Nc1ccc2nc[nH]c2c1)c1cc(F)cc2[nH]ncc12 | < 4.00 | < 4.00
COc1nn(C)cc1-c1nc2c(C(=O)Nc3ccc4c(c3)CNC4)cc(Cl)cc2[nH]1 | < 4.00 | < 4.00
O=C(Cc1ccc2ncsc2c1)Nc1ccc2c(c1)CNC2 | < 4.00 | < 4.00
CC(C)CCN1Cc2ccc(NC(=O)c3cc(Cl)cc4[nH]ncc34)cc2C1 | < 4.00 | < 4.00
C=CC[C@H]1NCc2cc(NC(=O)c3cccc4c3CC(=O)N4)ccc21 | < 4.00 | < 4.00
COc1ccc2[nH]cnc2c1S(=O)(=O)Nc1ccc2c(c1)CNC2 | < 4.00 | < 4.00
O=C(Nc1ccc2c(c1)CNC2)c1ccc2sncc2c1 | < 4.00 | < 4.00
O=C(Nc1ccc2c(c1)CNC2)c1cc(Cl)ccc1-n1cncn1 | < 4.00 | < 4.00
Clc1cc([C@@H]2C[C@H]2c2cccc(C3CCNCC3)c2)c2cn[nH]c2c1 | 5.03 and 4.88 | 5.10 and 5.17 and 5.20
Cc1nc(C2CC2)[nH]c1C(=O)Nc1cc(CCCN)ccn1 | < 4.00 | < 4.00
Cc1c(C(=O)Nc2cc(-c3cccnc3)ccn2)cc(C2CC2)n1C | 5.17 and 5.01 | 5.04 and 5.08 and 5.20
NCc1ccccc1C(=O)Nc1ccc2c(c1)C(=O)OC2 | < 4.00 | < 4.00
O=C(Nc1ccc2c(c1)CNC2)c1cc(F)cc2[nH]cnc12 | < 4.00 | 4.00
O=C(Nc1ccc2c(c1)CNC2)c1nc(C(F)(F)F)cs1 | < 4.00 | < 4.00
Cn1cc2c(C(=O)Nc3ccc4c(c3)CNC4)cc(F)cc2n1 | < 4.00 | < 4.00
O=C(Nc1ccc2c(c1)CNC2)c1cc(Br)cc2[nH]c([C@H]3CCCO3)nc12 | < 4.00 | < 4.00
CN1C(=O)Cc2cc(C(=O)Nc3ccc4c(c3)CNC4)ccc21 | < 4.00 | < 4.00
C=CC[C@H]1NCc2cc(NC(=O)c3cc(Cl)cc4[nH]ncc34)ccc21 | < 4.00 | < 4.00
O=C(Nc1ccc2c(c1)CNC2)c1cccc2c1OCCN2 | < 4.00 | < 4.00

Structure (SMILES) | pIC50 (Genome polyprotein [1]) | pIC50 (Genome polyprotein [2])
CC1(C)C(=O)N[C@H]2CCCN(C(=O)Nc3ccc4c(c3)CNC4)[C@H]21 | < 4.00 | < 4.00
O=C(Nc1ccc2c(c1)CNC2)N1CC[C@H](Oc2ccc(C3CC3)cn2)C1 | < 4.00 | < 4.00
CCc1ccc(-c2nc3c(C(=O)Nc4ccc5c(c4)CNC5)cc(Cl)cc3[nH]2)cc1 | 4.37 | 4.67
O=C(Nc1ccc2c(c1)CNC2)N1CCC[C@H]1c1nc2ncccc2[nH]1 | < 4.00 | < 4.00
CC1CCN(CC[C@H]2CCCN2C(=O)Nc2ccc3c(c2)CNC3)CC1 | < 4.00 | < 4.00
O=C1NS(=O)(=O)c2ccc(NC(=O)c3cc(Cl)cc4[nH]ncc34)cc21 | < 4.00 | < 4.00
CC(C)(C)c1nc2c(C(=O)Nc3ccc4c(c3)CNC4)cc(Br)cc2[nH]1 | < 4.00 | 4.41
O=C(Nc1ccc2c(c1)CNC2)N1CCC[C@@H]1COCc1ccccc1 | < 4.00 | < 4.00
CC(C)(C)OC(=O)N1Cc2cc(NC(=O)c3cc(Cl)cc4[nH]ncc34)cc(Br)c2C1 | < 4.00 | < 4.00
CNC(=O)c1cccc(C(=O)Nc2ccc3c(c2)CNC3)c1 | < 4.00 | < 4.00
O=C(Nc1ccc2c(c1)CNC2)c1cccc(O)c1 | < 4.00 | < 4.00
C#C[C@H](Nc1ccc2c(c1)CNC2)c1cccc2[nH]c(=O)[nH]c12 | < 4.00 | < 4.00
CCOCC1(c2nc3c(C(=O)Nc4ccc5c(c4)CNC5)cc(Cl)cc3[nH]2)CC1 | < 4.00 | 4.06
O=C(Nc1ccc2c(c1)CNC2)c1nc(Cl)nc2[nH]ccc12 | < 4.00 | < 4.00
O=C(Nc1ccc2c(c1)CNC2)c1cc(Cl)cc2cc[nH]c12 | < 4.00 | < 4.00
C=CC[C@H]1NCc2cc(NC(=O)c3cc(F)cc4[nH]ncc34)ccc21 | 4.41 | 4.14
O=C(Nc1ccc2c(c1)CNC2)c1cccc2[nH]ccc12 | < 4.00 | < 4.00
O=C(Nc1cc([C@H]2CCOC2)ccn1)c1ccc2ncsc2c1 | < 4.00 | < 4.00
O=C1Cc2c(cc(F)cc2C(=O)Nc2ccc3c(c2)CNC3)N1 | 4.52 and 4.59 and 4.68 | 4.48
CC(C)NC(=O)[C@H](Nc1ccc2c(c1)CNC2)c1cc(F)cc2[nH]ncc12 | < 4.00 | < 4.00
O=C(Nc1ccc2[nH]c(=O)[nH]c2c1)c1cc(F)cc2[nH]ncc12 | < 4.00 | < 4.00
O=C(Nc1ccc2c(c1)CNC2)c1cc(Cl)ccc1-n1cnnn1 | < 4.00 | < 4.00

Structure (SMILES) | pIC50 (Genome polyprotein [1]) | pIC50 (Genome polyprotein [2])
CN(C)C(=O)N1Cc2ccc(NC(=O)c3cc(Cl)cc4[nH]ncc34)cc2C1 | < 4.00 | < 4.00
CC1=CC[C@H](c2cccc(-c3nn[nH]n3)c2)Nc2cc(Cl)ccc21 | 4.47 | 4.16
Cc1cc(C)n([C@H]2CCCN(C(=O)Nc3ccc4c(c3)CNC4)C2)n1 | < 4.00 | < 4.00
O=C(Nc1ccc2c(c1)CNC2)c1ncc(Cc2ccccc2)s1 | < 4.00 | < 4.00
CC(C)(C)NC(=O)[C@H](Nc1ccc2c(c1)CNC2)c1cc(Cl)cc2[nH]ncc12 | < 4.00 | < 4.00
Cn1c(=O)[nH]c2c(C(=O)Nc3ccc4c(c3)CNC4)cc(Br)cc21 | 4.37 and 4.46 | < 4.00
O=C(Nc1ccc2c(c1)CNC2)c1cc(Cl)cc2[nH]c(-c3cc(C4CC4)[nH]n3)nc12 | < 4.00 | 5.14 and 5.29
N#C[C@H](Nc1ccc2c(c1)CNC2)c1cccc2ncccc12 | < 4.00 | < 4.00
O=C(Nc1ccc2c(c1)CNC2)c1cc(F)cc2c1CCC2 | < 4.00 | < 4.00
NCc1cc(C=C2CC(C(=O)O)C2)cc(NC(=O)c2cc(Cl)cc(NC(=O)OCc3ccccc3)c2)c1 (centres undefined) | < 4.00 | < 4.00
CC(C)Nc1c(-c2cc(Cl)cc3[nH]ncc23)nc2ccc3c(n12)CNC3 | < 4.00 | < 4.00
O=C(Nc1ccc2c(c1)CNC2)c1cc(Cl)cc2[nH]c(CCc3cccnc3)nc12 | < 4.00 | 4.35
O=C(Nc1ccc2c(c1)CNC2)c1ccc(OC(F)(F)F)cc1 | < 4.00 | < 4.00
NC[C@H]1CC[C@@H](NC(=O)c2cc(Cl)cc3[nH]ncc23)CC1 | < 4.00 | < 4.00
NCCCc1ccnc(NC(=O)c2cc(C3CC3)[nH]n2)c1 | < 4.00 | < 4.00
COCc1cc(Cl)cc(C(=O)Nc2ccc3c(c2)CNC3)c1 | < 4.00 | < 4.00
NCc1cc(CC(=O)O)cc([C@H]2C[C@@H]2c2cc(Cl)cc(NC(=O)OCc3ccccc3)c2)c1 | < 4.00 | < 4.00
CN(C)C(=O)CCCc1nc2c(C(=O)Nc3ccc4c(c3)CNC4)cc(Cl)cc2[nH]1 | < 4.00 | < 4.00
O=C(Nc1ccc2c(c1)CNC2)c1nc(-c2ccccc2)cs1 | < 4.00 | < 4.00
O=C1Cc2ccc(NC(=O)c3cc(F)cc4[nH]ncc34)cc2N1 | < 4.00 | < 4.00
O=C(Nc1ccc2c(c1)CNC2)c1cc(Cl)cc(N2CCCC2=O)c1 | < 4.00 | < 4.00
COc1cc(Cl)cc(C(=O)Nc2ccc3c(c2)CNC3)c1 | < 4.00 | < 4.00

Structure (SMILES) | pIC50 (Genome polyprotein [1]) | pIC50 (Genome polyprotein [2])
O=C(Nc1ccc2c(c1)CNC2)c1cccc2ncccc12 | < 4.00 | < 4.00
CC(=O)N1Cc2ccc(NC(=O)c3cc(Cl)cc4[nH]ncc34)cc2C1 | < 4.00 | < 4.00
COc1ncc(Cl)cc1C(=O)Nc1ccc2c(c1)CNC2 | < 4.00 | < 4.00
O=C(Nc1nc(O)c2c(n1)CNC2)c1cc(Cl)cc2[nH]ncc12 | < 4.00 | < 4.00
O=C(Nc1ccc2c(c1)CNC2)c1ccc2ncccc2c1 | < 4.00 | < 4.00
Clc1cccc([C@H](C#Cc2ccccc2)Nc2ccc3c(c2)CNC3)c1 | < 4.00 | < 4.00
O=C(Nc1ccc2c(c1)CNC2)c1cc(F)cc2[nH]c(-c3ccccc3)nc12 | 5.24 | 5.10 and 5.15
O=C(Nc1ccc2c(c1)CNC2)c1cc(Cl)cc2nn(-c3ccccc3)nc12 | 4.89 | 5.13 and 5.09 and 5.18
CCC[C@H](C)N1Cc2ccc(NC(=O)c3cc(Cl)cc4[nH]ncc34)cc2C1 | < 4.00 | < 4.00
O=C(Nc1ccc2c(c1)CNC2)c1cccc2cn[nH]c12 | < 4.00 | < 4.00 and 4.25
O=C(Nc1cc2c(cc1Br)CNC2)c1cc(F)cc2[nH]ncc12 | 4.24 | 4.17
C[C@](C#N)(Nc1ccc2c(c1)CNC2)c1cccc(Cl)c1 | < 4.00 | < 4.00
C#Cc1cc(Cl)cc(C(=O)Nc2ccc3c(c2)CNC3)c1 | < 4.00 | < 4.00
O=C1Cc2c(cc(Br)cc2C(=O)Nc2ccc3c(c2)C(=O)OC3)N1 | < 4.00 | < 4.00
O=C(Nc1ccc2c(c1)CNC2)c1cc(Cl)cc2ccccc12 | < 4.00 | < 4.00
O=C1CN(C(=O)Nc2ccc3c(c2)CNC3)[C@H]2CCCC[C@H]2N1 | < 4.00 | < 4.00
O=C(Nc1ccc2c(c1)CNC2)N1CCC[C@H]1Cc1cc2ccccc2o1 | < 4.00 | < 4.00
Clc1cc([C@H](C#CC2CC2)Nc2ccc3c(c2)CNC3)c2cn[nH]c2c1 | < 4.00 | < 4.00
O=C(Nc1ccc2c(c1)CNC2)c1cc(Cl)cc2[nH]c(-c3cnc(C4CC4)o3)nc12 | 4.71 | 4.23
O=C(Nc1ccc2c(c1)CNC2)c1cc(Cl)cc(N2CCCC2)c1 | < 4.00 | < 4.00
CC(=O)Nc1cccc(C(=O)Nc2ccc3c(c2)CNC3)c1 | < 4.00 | < 4.00

Source: ChEMBL document CHEMBL5604063, “ASAP - DENV-2 NS2B-NS3 protease fluorescence dose response” (2024)
